Results published in US6372917B1, “Biphenylsulfonyl-substituted imidazole derivatives, their preparation process, their use as a drug or diagnostic agent and drug containing them” (Aventis Pharma Deutschland GmbH, priority 1998, dated 2002).

Assays:
[1] = tested on: Na+-dependent Cl-/HCO3- exchanger (NCBE); assay: Inhibition of the Na+-dependent Cl-/HCO3- exchanger (NCBE) in human endothelial cells (pHi recovery, BCECF fluorescence, FLIPR); assay type: cell-based; conditions: inhibitor concentration 10 μM; human endothelial cells (ECV-304); 50 μM HOE 642 present; 35° C., 2 minutes
Procedure: Inhibition of the Na^+-dependent Cl^−/HCO3^− exchanger (NCBE) in human endothelial cells
Human endothelial cells (ECV-304) were detached from culture bottles with the aid of trypsin/EDTA buffer (0.05/0.02% in phosphate buffer) and, after centrifugation (100 g, 5 min), taken up in a buffered salt solution (mmol/l: 115 NaCl, 20 NH4Cl, 5 KCl, 1 CaCl2, 1 MgSO4, 20 N-(2-hydroxyethyl)piperazine-N-2-ethanesulfonic acid (HEPES), 5 glucose and 1 g/l of bovine serum albumin; pH 7.4). This cell suspension was incubated at 37° C. for 20 min with 5 μM BCECF-acetoxymethyl ester. […] For subsequent fluorescence measurement in an FLIPR (Fluorescent Imaging Plate Reader) 100 μl of this cell suspension having 20,000 cells in each case were pipetted per well into a 96-well microtiter plate and this microtiter plate was centrifuged (100 g, 5 min). […] After addition of the buffer solutions to the dye-loaded, acidified cells in the measurement plate, the rise in the fluorescence intensity, which corresponded to a rise in the pHi, in each well of the microtiter plate was determined. The kinetics were in this case recorded at 35° C. for a period of 2 minutes. The increase in the fluorescence intensities for different concentrations of the compounds according to the invention was related to the two controls and from this the inhibitory action of the substances was determined.

melting point: 220 °C (dec.)
Compound: CS(=O)(=O)c1cc(-c2ccccc2S(=O)(=O)NC#N)ccc1Cn1c(-c2ccccc2)nc(Cl)c1C=O [Example 2, 4′-(4-Chloro-5-formyl-2-phenylimidazol-1-ylmethyl)-3′-methanesulfonylbiphenyl-2-sulfonylcyanamide]
Residual activity of the NCBE at an inhibitor concentration of 10 μM [1]: 18.3%
